Test results taken from patent publication US6756368B1, “Use of cobalt chelates for treating or preventing virus infection” (The Trustees of Columbia University in the City of New York, priority 1999, dated 2004).

How the values were obtained:
[1] = 50 μg/ml of CTC-96; cited from earlier work
Hela cells = conditions: 100 μg/ml, 2 days
HSV-1 = test: Adsorption assay, 3H labeled HSV-1 binding to Vero cells; conditions: 50 μg/ml, 4° C., MOI 100
[2] = tested on: varicella-zoster virus (VZV); test: VZV infection of Helf cells, immunohistochemistry; assay type: cell-based, VZV strain Ellen
Experimental: Helf cell monolayers seeded on two chambered slides were infected with 20 μl cell-associated VZV in 1% FBS DMEM in the presence and absence of 50 μg/ml CTC-96. At 28 h postinfection, the slides were washed twice with PBS, fixed in 3.7% formaldehyde in PBS for 30 min at room temperature, and washed again. The infected cells were washed twice with Tris-buffered saline (TBS) and incubated at −20° C. in −20° C. acetone for 10 min. Slides were washed twice with TBS, blocked with 1% goat serum (Sigma, St. Louis, Mo.) in TBS for 20 min at room temperature, and incubated in 200 μl 1:200 rabbit polyclonal anti-ORF 29 in 1% goat serum TBS for 30 min at room temperature. The slides were washed three times with TBS for 5 min each and then incubated with 200 μl 1:200 goat anti-rabbit IgG conjugated horseradish? peroxidase (Kirkegaard and Perry Laboratories Inc.) in 1% goat serum TBS for 30 min at room temperature. Slides were washed three times with TBS for 5 min each. The peroxidase was developed for 5 min using the commercial kit, Alkaline Phosphatase Substrate Kit III (Vector Laboratories Inc., Burlingame, Calif.) according to the manufacturer's directions and then washed several times with water. The slides were viewed with a Leitz Dialux microscope. Endocytosis assay. Vero cells seeded on cover slips were incubated at 37° C. in 5% BCS DMEM with and without 50 μg/ml CTC-96 for various times. […]

VZV = VZV plaque formation; assay type: cell-based; conditions: data not shown

CC(/C=C(/C)[O-])=NCCN=C(C)/C=C(/C)[O-].Cc1ncc[nH]1.Cc1ncc[nH]1.[Br-].[Co+3] [CTC-96]
toxicity in animal models [1]: does not appear to be toxic | state of the HeLa cells (Hela cells): dead | adsorption (binding) of HSV-1 to Vero cell monolayers (HSV-1): no effect | cells positive for VZV ([2]; Helf cells, in the presence of CTC-96): Very few cells were positive | % Inhibition ([2]; VZV (Ellen), Helt, 50 μg/ml of CTC-96, immunohistochemistry): 100% | VZV plaque formation (VZV): inhibition of VZV plaque formation
